For the assay, the target named is T1, NMDAR2B (Homo sapiens, UniProt Q13224).
T1 construct: expressed in transfected cells; host or cells: HEK cells (membrane extract)
The assay is described as follows: NMDAR agonist assay, [3H]MK-801 binding, NMDAR2B expressing HEK cell membranes. In kind it is biochemical. The conditions noted are these: 50 μM glutamate. As to the method: Assays were conducted as described by Moskal et al., “GLYX-13: a monoclonal antibody-derived peptide that acts as an N-methyl-D-aspartate receptor modulator,” Neuropharmacology, 49, 1077-87, 2005. These studies were designed to determine if the test compounds act to facilitate NMDAR activation in NMDAR2A, NMDAR2B, NMDAR2C or NMDAR2D expressing HEK cell membranes as measured by increases in [3H]MK-801 binding.
In the assay, 300 μg of NMDAR expressing HEK cell membrane extract protein was preincubated for 15 minutes at 25° C. in the presence of saturating concentrations of glutamate (50 μM) and varying concentrations of test compound (1×10^−15M-1×10^−7M), or 1 mM glycine. Following the addition of 0.3 μCi of [3H]MK-801 (22.5 Ci/mmol), reactions were again incubated for 15 minutes at 25° C. (nonequilibrium conditions). Bound and free [3H]MK-801 were separated via rapid filtration using a Brandel apparatus.
In analyzing the data, the DPM (disintegrations per minute) of [3H]MK-801 remaining on the filter were measured for each concentration of test compound or for 1 mM glycine. The DPM values for each concentration of a ligand (N=2) were averaged. The baseline value was determined from the best fit curve of the DPM values modeled using the GraphPad program and the log(agonist) vs. response(three parameters) algorithm was then subtracted from all points in the dataset. The % maximal [3H]MK-801 binding was then calculated relative to that of 1 mM glycine: all baseline subtracted DPM values were divided by the average value for 1 mM glycine. The EC50 and % maximal activity were then obtained from the best fit curve of the % maximal [3H]MK-801 binding data modelled using the GraphPad program and the log(agonist) vs. response(three parameters) algorithm.
The tables below summarize the results for the wild type NMDAR agonists NMDAR2A, NMDAR2B, NMDAR2C, and NMDAR2D, and whether the compound is not an agonist (−), is an agonist (+), or is a strong agonist (++), where column A is based on the % maximal [3H]MK-801 binding relative to 1 mM glycine (−=0; <100%=+; and >100%=++); and column B is based on log EC50 values (0=−; >1×10^−9 M (e.g., −8)=+; and <1×10^−9 M (e.g., −10)++).

The source of these data is patent publication US11578072B2, “Spiro-lactam NMDA receptor modulators and uses thereof” (Aptinyx Inc., priority 2018, dated 2023).

T1 sequence (Q13224 27-1484, species assumed, other chains not shown): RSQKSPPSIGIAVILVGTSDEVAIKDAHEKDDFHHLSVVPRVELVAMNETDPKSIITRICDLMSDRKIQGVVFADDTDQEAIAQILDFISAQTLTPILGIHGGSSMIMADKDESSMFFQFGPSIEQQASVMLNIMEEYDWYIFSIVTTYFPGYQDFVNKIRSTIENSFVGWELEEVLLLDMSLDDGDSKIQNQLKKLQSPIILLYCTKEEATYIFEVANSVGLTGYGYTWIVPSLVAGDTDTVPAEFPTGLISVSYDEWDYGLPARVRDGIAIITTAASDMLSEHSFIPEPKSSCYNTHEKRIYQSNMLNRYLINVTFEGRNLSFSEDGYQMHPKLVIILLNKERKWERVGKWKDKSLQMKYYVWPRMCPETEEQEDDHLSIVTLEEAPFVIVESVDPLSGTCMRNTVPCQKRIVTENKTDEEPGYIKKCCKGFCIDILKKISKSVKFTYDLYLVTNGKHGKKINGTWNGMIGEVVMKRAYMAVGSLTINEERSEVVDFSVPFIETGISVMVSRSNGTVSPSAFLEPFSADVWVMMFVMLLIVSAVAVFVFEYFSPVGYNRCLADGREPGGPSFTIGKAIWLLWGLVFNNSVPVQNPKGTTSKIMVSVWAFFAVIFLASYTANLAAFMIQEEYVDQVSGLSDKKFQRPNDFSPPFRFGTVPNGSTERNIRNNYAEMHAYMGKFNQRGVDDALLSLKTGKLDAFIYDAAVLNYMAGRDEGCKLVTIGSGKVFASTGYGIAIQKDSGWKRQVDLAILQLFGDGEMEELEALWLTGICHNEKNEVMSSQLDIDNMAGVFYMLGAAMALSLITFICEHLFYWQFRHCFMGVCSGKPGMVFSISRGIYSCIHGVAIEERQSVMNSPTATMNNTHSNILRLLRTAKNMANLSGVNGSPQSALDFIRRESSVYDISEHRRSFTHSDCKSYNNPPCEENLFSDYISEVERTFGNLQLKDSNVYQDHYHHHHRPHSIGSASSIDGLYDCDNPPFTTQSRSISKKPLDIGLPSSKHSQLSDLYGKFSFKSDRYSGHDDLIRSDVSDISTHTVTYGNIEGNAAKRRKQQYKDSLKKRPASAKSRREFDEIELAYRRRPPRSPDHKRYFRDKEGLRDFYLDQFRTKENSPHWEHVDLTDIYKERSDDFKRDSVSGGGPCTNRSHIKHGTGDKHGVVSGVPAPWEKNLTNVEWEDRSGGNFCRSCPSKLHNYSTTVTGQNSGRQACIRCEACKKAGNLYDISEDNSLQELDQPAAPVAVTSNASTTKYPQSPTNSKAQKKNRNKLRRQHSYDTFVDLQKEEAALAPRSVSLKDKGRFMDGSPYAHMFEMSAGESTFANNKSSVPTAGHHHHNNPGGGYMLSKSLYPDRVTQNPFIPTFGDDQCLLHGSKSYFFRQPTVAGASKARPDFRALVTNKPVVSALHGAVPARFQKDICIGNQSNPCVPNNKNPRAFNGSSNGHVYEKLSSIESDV

Consider `CC(C)C(=O)N1CCC2(CCCNC2=O)CC1` [Compound AD, 9-isobutyryl-2,9-diazaspiro[5.5]undecan-1-one], for which the “NMDAR2B A: % maximal [3H]MK-801 binding relative to 1 mM glycine” value is recorded as “+ (<100%=+)”. Besides, the concentration giving a half-maximal response (EC50) (read-out: NMDAR2B B: log EC50 (converted)) is less than 1 nM.
